Values joined by “and” are separate entries in the source; they are usually repeats but may differ in a detail not shown here. Equal values may be shown once.
Key:
Type in all cases: in vivo, human
Type 2 Diabetic Subjects [1] = experiment: Marker of endothelial function: reflection index (RI), study (c); details: CAPROS 250 mg twice daily, Atorvastatin 10 mg daily, n = 20
From the text: A salbutamol (albuterol) challenge test employing digital volume plethysmography was used to assess endothelial function as reported by Chowienczyk et al., “Photoplethysmographic assessment of pulse wave reflection: blunted response to endothelium dependant beta 2-adrenergic vasodilation in type 2 diabetes mellitus,” J. Am. Coll. Cardiol. (1999 December) 34(7):2007-14; and Naidu, et al., “Comparison of two β2 adrenoceptor agonists by different routes of administration to assess human endothelial function,” Indian J. Pharmacol. (2007) 39:168-9. The patients were examined in supine position after 5 minutes of rest. A digital volume pulse (DVP) was obtained using a photo plethysmograph (Pulse Trace PCA2, PT200, Micro Medical, Gallingham, Kent, UK) transmitting infrared light at 940 nm, placed on the index finger of the right hand. The signal from the plethysmograph was digitized using a 12 bit analogue to digital converter with a sampling frequency of 100 Hz. DVP waveforms were recorded over 20 second period and the height of the late systolic/early diastolic portion of the DVP was expressed as a percentage of the amplitude of the DVP to yield the reflection index (RI), per the procedure described in detail by Millasseau et al., “Determination of age related increases in large artery stiffness by digital pulse contour analysis,” Clinical Science (2002) 103: 371-377. Three DVP recordings were taken, and measurements of reflection index (RI) were calculated and the mean value was determined. Patients were then administered 400 μg of salbutamol by inhalation. After 15 minutes three measurements of RI were obtained again and the difference in mean RI before and after administration of salbutamol was used for assessing endothelial function. A change of ≦6% in RI post-salbutamol was considered as endothelial dysfunction.
Study (c) design. […]

Type 2 Diabetic Subjects [2] = experiment: Biomarkers of oxidative stress (NO, MDA, Glutathione), study (a); details: Sensoril or Capros 250 mg twice daily, Atorvastatin 10 mg at night; for Glutathione / MDA / NO: n = 10
Protocol: […]. (April 2004) 36(2): 76-79. Glutathione levels were determined as described in G. L. Ellman, Arch. Biochem. Biophys. (1959) 82: 70-77 (original determination). Nitric oxide levels were estimated spectrophotometrically as described in Miranda, et al., “A Rapid, Simple Spectrophotometric Method for Simultaneous Detection of Nitrate and Nitrite,” NITRIC OXIDE: Biology and Chemistry (2001) Vol. 5, No. 1, pp. 62-71.

Type 2 Diabetic Subjects [3] = experiment: Lipid profile, study (a), 12 weeks treatment; details: Sensoril or Capros 250 mg twice daily, Atorvastatin 10 mg at night, n = 10
Protocol: Study (a) design. Patients of either sex, aged 18-75 years, fasting plasma glucose of ≧110 mg/dL, a glycosylated hemoglobin (HbA1c) between 7% and 10% and taking stable doses of anti-diabetic treatment for the past 8 weeks prior to the screening visit; and having endothelial dysfunction defined as ≦6% change in reflection index (RI) on post salbutamol challenge test were included in the study. Patients with severe uncontrolled hyperglycaemia, uncontrolled hypertension, cardiac arrhythmia, impaired hepatic or renal function, history of malignancy or stroke, smoking, chronic alcoholism, any other serious disease requiring active treatment and treatment with any other herbal supplements, were excluded from the study. Pregnant and lactating women were also excluded.
All the eligible subjects were randomized to receive either one of the four treatments for duration of 12 weeks. There were ten (10) subjects per group. […] Subjects were asked to revisit for follow up at 4, 8 and 12 weeks of therapy. At each visit they were evaluated for efficacy and safety. Pharmacodynamic evaluation for endothelial function was conducted at every visit. Blood samples were collected for evaluation of biomarkers before and at the end of treatment. Safety lab investigations were conducted before and at the end of the study and as and when required in case of any adverse drug reaction (ADR). Subjects were examiner and/or surveyed for the presence of ADR and the same was recorded in the case report form. Compliance was assessed by pill count method.
All the subjects had undergone complete physical examination, safety lab evaluations at baseline, i.e., prior to treatment, and at the end of the treatment. Samples were collected after an overnight fast of 12 hrs after the last dose of medication for determination of haemoglobin level, glycosylated hemoglobin (HbA1c), urea and creatinine levels, liver function, and lipid profile (total cholesterol, high density lipoprotein cholesterol (HDL-C), and low density lipoprotein cholesterol (LDL-C)). Plasma glucose, liver function test, blood urea, serum creatinine and HbA1c were measured using appropriate standard techniques.

Type 2 Diabetic Subjects [4] = experiment: Biomarkers of oxidative stress and hsCRP, study (c); details: CAPROS 250 mg twice daily, Atorvastatin 10 mg daily, n = 20
Protocol: Malondialdehyde (MDA) levels were determined as described in Vidyasagar, et al., “Oxidative stress and antioxidant status in acute organophosphorous insecticide poisoning,” Indian J. Pharmacol. (April 2004) 36(2): 76-79. Glutathione levels were determined as described in G. L. Ellman, Arch. Biochem. Biophys. (1959) 82: 70-77 (original determination). Nitric oxide levels were estimated spectrophotometrically as described in Miranda, et al., “A Rapid, Simple Spectrophotometric Method for Simultaneous Detection of Nitrate and Nitrite,” NITRIC OXIDE: Biology and Chemistry (2001) Vol. 5, No. 1, pp. 62-71.
After screening, all the eligible subjects were randomized to receive either one of the four treatments for a duration of 12 weeks, as follows.
Nitric oxide, MDA, Glutathione (GSH) and levels thereof were estimated spectrophotometrically as described above, and HsCRP (high sensitivity C-reactive protein) by ELISA method.

Q: How did the “Absolute change in RI” value (Type 2 Diabetic Subjects [1]; 12 weeks) turn out when CC(C)c1c(C(=O)Nc2ccccc2)c(-c2ccccc2)c(-c2ccc(F)cc2)n1CC[C@@H](O)C[C@@H](O)CC(=O)O [Atorvastatin] was run?
A: The value was −8.35 ± 4.17%.

Q: And the “RI(%), Mean” value (Type 2 Diabetic Subjects [1]; Post TT, 12 weeks)?
A: Its value is −11.03$ %.

Q: And the “RI(%), Mean” value (Type 2 Diabetic Subjects [1]; Pre TT)?
A: The value was −2.68%.

Q: And the Glutathione (Type 2 Diabetic Subjects [2]; Post treatment, 12 weeks)?
A: The Glutathione was 721.6 ± 116.9 µmol/L.

Q: What about the MDA (Type 2 Diabetic Subjects [2]; Post treatment, 12 weeks) of the same compound?
A: The MDA was 2.13 ± 0.48 nmol/mL.

Q: And the NO (Type 2 Diabetic Subjects [2]; Post treatment, 12 weeks)?
A: Its NO is 68.89 ± 11.54 µmol/L.

Q: What about the Glutathione (Type 2 Diabetic Subjects [2]; Pre treatment) of the same compound?
A: Its Glutathione is 530.8 ± 168.4 µmol/L.

Q: And the MDA (Type 2 Diabetic Subjects [2]; Pre treatment)?
A: The MDA was 3.48 ± 0.73 nmol/mL.

Q: What about the NO (Type 2 Diabetic Subjects [2]; Pre treatment) of the same compound?
A: The NO was 42.24 ± 6.771 µmol/L.

Q: What about the “Mean % change in Glutathione” value (Type 2 Diabetic Subjects [2]; after 12 weeks of treatment) of the same compound?
A: The value was 51.77% and 51.77 ± 62.72%.

Q: And the “Mean % change in MDA” value (Type 2 Diabetic Subjects [2]; after 12 weeks of treatment)?
A: Its value is −38.05% and −38.05 ± 10.43%.

Q: What about the “Mean % change in NO” value (Type 2 Diabetic Subjects [2]; after 12 weeks of treatment) of the same compound?
A: The value was 64.71% and 64.71 ± 27.25%.

Q: What about the HDL-C (Type 2 Diabetic Subjects [3]; Post treatment, 12 weeks) of the same compound?
A: Its HDL-C is 48.2±6.01 mg/dL and 48.2 ± 6.01$ mg/dL.

Q: And the LDL-C (Type 2 Diabetic Subjects [3]; Post treatment, 12 weeks)?
A: Its LDL-C is 87.6 ± 19.07 mg/dL.

Q: And the “Total Cholesterol” value (Type 2 Diabetic Subjects [3]; Post treatment, 12 weeks)?
A: Its value is 146 ± 24.52 mg/dL.

Q: What about the Triglycerides (Type 2 Diabetic Subjects [3]; Post treatment, 12 weeks) of the same compound?
A: Its Triglycerides is 102.8 ± 40.61 mg/dL.

Q: What about the HDL-C (Type 2 Diabetic Subjects [3]; Pre treatment) of the same compound?
A: Its HDL-C is 42.77 ± 6.13 mg/dL.

Q: And the LDL-C (Type 2 Diabetic Subjects [3]; Pre treatment)?
A: The LDL-C was 133.2 ± 38.09 mg/dL.

Q: What about the “Total Cholesterol” value (Type 2 Diabetic Subjects [3]; Pre treatment) of the same compound?
A: Its value is 185.7 ± 36.38 mg/dL.

Q: What about the Triglycerides (Type 2 Diabetic Subjects [3]; Pre treatment) of the same compound?
A: The Triglycerides was 169.1 ± 67.51 mg/dL.

Q: And the “Absolute change in MDA” value (Type 2 Diabetic Subjects [4]; 12 weeks)?
A: The value was −1.17 ± 0.75 nM/ml.

Q: And the “Absolute change in NO” value (Type 2 Diabetic Subjects [4]; 12 weeks)?
A: The value was 28.45 ± 12.30 μM/L.

Q: And the “Absolute change in hsCRP” value (Type 2 Diabetic Subjects [4]; 12 weeks)?
A: The value was −2.10 ± 1.26 Mg/L.

Q: What about the “Mean percentage change in MDA” value (Type 2 Diabetic Subjects [4]; 12 weeks) of the same compound?
A: Its value is −30.55 ± 19.81%.

Q: What about the “Mean percentage change in NO” value (Type 2 Diabetic Subjects [4]; 12 weeks) of the same compound?
A: Its value is 88.44 ± 50.97%.

Q: What about the “Mean percentage change in hsCRP” value (Type 2 Diabetic Subjects [4]; 12 weeks) of the same compound?
A: The value was −64.90 ± 26.99%.

Q: And the MDA (Type 2 Diabetic Subjects [4]; Post TT, 12 weeks)?
A: The MDA was 2.37 ± 0.59 nM/ml.

Q: What about the NO (Type 2 Diabetic Subjects [4]; Post TT, 12 weeks) of the same compound?
A: Its NO is 63.69 ± 15.04 μM/L.

Q: And the hsCRP (Type 2 Diabetic Subjects [4]; Post TT, 12 weeks)?
A: The hsCRP was 0.97 ± 0.78 Mg/L.

Q: What about the MDA (Type 2 Diabetic Subjects [4]; Pre TT) of the same compound?
A: The MDA was 3.54 ± 0.85 nM/ml.

Q: And the NO (Type 2 Diabetic Subjects [4]; Pre TT)?
A: The NO was 35.24 ± 9.71 μM/L.

Q: And the hsCRP (Type 2 Diabetic Subjects [4]; Pre TT)?
A: Its hsCRP is 3.08 ± 1.38 Mg/L.

— US8962576B2, “Compositions and method for improving endothelial function and cardiovascular health” (Natreon, Inc., priority 2012, dated 2015)
